Test results taken from patent US6211227A, “Tricyclic compounds” (Kyowa Hakko Kogyo Co., Ltd., priority 1997, dated 2001).
Where two headings read alike, the source gives them in different places.

What was measured:
[1] = system: detrusor muscle (isolated urinary bladder strips); test: Relaxation of rhythmic contraction induced by 15 mmol/l KCl in isolated urinary bladder strips (Test Example 2); parameters: species or system guinea pig (male albino Hartley); details: Cavia porcellus; KCl 15 mmol/l; cumulative, contact time 15-30 minutes; 50% relaxant of maximum response
Description: (§1) The activity of Compounds (I) as therapeutic agents for pollakiuria and urinary incontinence is described below. In the following Test Examples 1 and 2, IC50 value was defined as the concentration at which a test compound produces 50% relaxant of maximum response of detrusor muscle.
(§2) Male albino Hartley guinea pigs (350-550 g) were used as test animals. Each animal was exsanguinated to death under sodium pentobarbital anesthesia. The lower abdominal cavity was opened and its bladder was positioned. The connective tissue and the fat tissue around the bladder were removed, and the bladder was washed. After bilateral pelvic nerves on the surface of the abdominal side of the bladder were dissected, the bladder was taken out on the entrance of ureter. The bladder was washed with a Krebs-Henseleit buffer [composition (mM): NaCl 118, KCl 4.7, MgSO4 1.2, KH2 PO4 1.2, CaCl2 2.5, NaHCO3 25, and D-glucose 11.1], and then put on a gauze patch soaked in the buffer in a Petri dish. The dome and the trigone of the bladder were cut away. The back of the bladder was cut vertically in the middle with scissors, and the bladder was put flat on the gauze patch. The mucosa of the bladder was removed. The back of the bladder was cut vertically to get 6 strips which are ca. 2.0 mm wide and ca. 10 mm long.
(§3) Each strip was tied at one end to plastic rod and placed in a 20 ml organ bath containing a Krebs-Henseleit solution which was maintained at 37° C. and bubbled vigorously with a gas mixture of 5% CO2 and 95% O2. The pH of the solution was adjusted to about 7.4. The other end of the strip was tied via silk thread to a force displacement transducer (NIHON KODEN TB-611T). The transducer was connected to a polygraph (NIHON KODEN AP-621G), and the changes in tension were recorded on a recorder (YOKOGAWA type 3066). The polygraph was graduated by 0.5 g/cm.
Isolated urinary bladder strips were prepared in the same manner as in Test Example 1, and the tension of the preparation was measured. After the tension of the tissue was adjusted to be a steady state at 1 g, 15 mmol/l KCl was applied. After the rhythmic contraction was confirmed to appear by KCl, the tissue was washed. Then, 15 mmol/l KCl was applied again. After the rhythmic contraction induced by KCl became constant, a test compound was applied by the cumulative method (half-logarithmic increment). The contact time at each concentration was 15-30 minutes. The activity of the compound was expressed as the maximum relaxation rate (%) against the tension induced by the agonist.

bladder = test: animal or person; details: Rattus norvegicus, po, read-out: Contraction interval
Description: Male SD strain rats (200-300 g) were used as test animals. Each animal was anesthetized by intraperitoneally administering 50 mg/kg Nembutal. The hair on the abdomen, the thigh, and the back of the neck was shaved, followed by disinfection with 70% ethanol. The left femoral artery of the rat was exposed by incising the thigh for the insertion of a catheter into the femoral artery. A catheter filled with physiological saline containing heparin (1000 units/ml) was introduced approximately 2-3 cm into the artery so that its tip resided in the abdominal artery. The distal end of the catheter was exteriorized at the nape of the neck, sealed, and fixed on the skin tightly. A bladder catheter was implanted according to the method of Yaksh, et al., [Am. J. Physiol., vol.251, R1177-1185 (1986)]. The bladder was exposed through a midline abdominal incision. The bladder dome was given a small incision to make a small hole. A catheter filled with physiological saline was placed into the bladder and secured with a silk ligature. The other end of the catheter was exteriorized at the nape of the neck after being passed under the skin using a trocar. The exposed end of the catheter was sealed and fixed on the skin tightly. The abdominal muscles and skin were sutured, and the test animal was recovered from anesthesia.
The rat was weighed 24-48 hours after the operation. Each rat was placed in a Bollman cage (NATSUME SEISAKUSHO), and the test was done under partial restraint. The arterial catheter was connected to a pressure transducer (NIHON KODEN DX-300) used for the measurement of blood pressure. The bladder catheter was connected to a sylinge pump for physiological saline infusion and to a pressure transducer with PE50 tubing and a three-way stop-cock. Intravesical physiological saline infusion (0.05 ml/minute) was started and continued during the test. The changes of blood pressure, heart rate, and intravesical pressure were recorded with a polygraph (NIHON KODEN). The test animal was allowed to equilibration (for ca. 60-120 minutes) until its micturition pattern became constant. At this point, a basal value of each test parameter was recorded, and the rat was compulsorily given a test compound (in 0.3% carboxymethyl cellulose-physiological saline) at a dose of 1 mg/kg (body weight) by oral administration. […] As a control compound, cromakalim was used. The contraction interval, the systemic blood pressure, and the heart rate were measured for 5 hours after the administration of the compound at one-hour intervals and were expressed as the relative values based on the pre-administration values which were regarded as 100.

[2] = system: detrusor muscle (isolated urinary bladder strips); test: Relaxation of contraction induced by 50 mmol/l KCl in isolated urinary bladder strips (Test Example 1); parameters: species or system guinea pig (male albino Hartley); details: Cavia porcellus, 0.5 h; KCl 50 mmol/l; cumulative, contact time 30 minutes; 50% relaxant of maximum response
Description: as §1, §2, §3
After the tissue was incubated in the buffer for 15 minutes without preloading, tension was added thereto for about one hour. The preloading tension added was 1.5 g and it was relaxed to about 1 g. The strips were allowed to equilibrate until their contractions became constant and tension was adjusted to 1 g. After this equilibrium period, 50 mmol/l KCl (the whole content in the bath) was added, and the tissue was washed 10 minutes later. KCl was added to the tissue at intervals of 30 minutes, followed by washing 10 minutes later, and KCl was applied repeatedly until the developed tension induced by KCl becomes constant. When the tissue was confirmed to contract constantly by the application of KCl and relax to the steady state after washing, 50 mmol/l KCl was applied again. After the tissue reached the steady state and the base line was obtained, a test compound was applied by the cumulative method (half-logarithmic increment). The contact time at each concentration was 30 minutes. The activity of the compound was expressed as the maximum relaxation rate (%) against the tension induced by the agonist.

Compound: CC(O)(C(=O)Nc1ccc2c(c1)S(=O)(=O)Cc1ccsc1C2=O)C(F)(F)F (stereo not drawn) [Compound 1-2, 5,5-Dioxo-7-(3,3,3-trifluoro-2-hydroxy-2-methylpropanoylamino)-4,10-dihydrothieno[3,2-c][1]benzothiepin-10-one]
- IC50 [1]: 5.1 µM
- response vs control in vivo at 1 mg/kg (bladder; 1 h): 116 ± 8%
- response vs control in vivo at 1 mg/kg (bladder; 2 h): 136 ± 5%
- response vs control in vivo at 1 mg/kg (bladder; 3 h): 149 ± 9%
- response vs control in vivo at 1 mg/kg (bladder; 4 h): 143 ± 5%
- response vs control in vivo at 1 mg/kg (bladder; 5 h): 139 ± 6%
- IC50 [2]: > 10 µM

Compound: CC(O)(C(=O)Nc1cccc2c1C(=O)c1ccccc1CS2(=O)=O)C(F)(F)F (stereo not drawn) [Compound 1-3, 5,5-Dioxo-1-(3,3,3-trifluoro-2-hydroxy-2-methylpropanoylamino)-6,11-dihydrodibenzo[b,e]thiepin-11-one]
- IC50 [1]: 6.3 µM
- response vs control in vivo at 1 mg/kg (bladder; 1 h): 123 ± 15%
- response vs control in vivo at 1 mg/kg (bladder; 2 h): 135 ± 11%
- response vs control in vivo at 1 mg/kg (bladder; 3 h): 144 ± 10%
- response vs control in vivo at 1 mg/kg (bladder; 4 h): 160 ± 19%
- response vs control in vivo at 1 mg/kg (bladder; 5 h): 160 ± 16%
- IC50 [2]: > 10 µM

Compound: C[C@](O)(C(=O)Nc1cccc2c1C(=O)c1sccc1CS2(=O)=O)C(F)(F)F [Compound 1-25, (S)-(+)-5,5-Dioxo-9-(3,3,3-trifluoro-2-hydroxy-2-methylpropanoylamino)-4,10-dihydrothieno[3,2-c][1]benzothiepin-10-one]
- IC50 [1]: 2.6 µM
- response vs control in vivo at 0.1 mg/kg (bladder; 1 h): 108 ± 9%
- response vs control in vivo at 3 mg/kg (bladder; 1 h): 129 ± 8%
- response vs control in vivo at 10 mg/kg (bladder; 1 h): 133 ± 15%
- response vs control in vivo at 0.1 mg/kg (bladder; 2 h): 140 ± 9%
- response vs control in vivo at 3 mg/kg (bladder; 2 h): 125 ± 14%
- response vs control in vivo at 10 mg/kg (bladder; 2 h): 128 ± 10%
- response vs control in vivo at 0.1 mg/kg (bladder; 3 h): 140 ± 12%
- response vs control in vivo at 3 mg/kg (bladder; 3 h): 143 ± 22%
- response vs control in vivo at 10 mg/kg (bladder; 3 h): 149 ± 19%
- response vs control in vivo at 0.1 mg/kg (bladder; 4 h): 148 ± 13%
- response vs control in vivo at 3 mg/kg (bladder; 4 h): 165 ± 22%
- response vs control in vivo at 10 mg/kg (bladder; 4 h): 180 ± 22%
- response vs control in vivo at 0.1 mg/kg (bladder; 5 h): 163 ± 17%
- response vs control in vivo at 3 mg/kg (bladder; 5 h): 161 ± 13%
- response vs control in vivo at 10 mg/kg (bladder; 5 h): 183 ± 14%
- IC50 [2]: 10.5 µM

Compound: C[C@@](O)(C(=O)Nc1cccc2c1C(=O)c1sccc1CS2(=O)=O)C(F)(F)F [Compound 1-26, (R)-(-)-5,5-Dioxo-9-(3,3,3-trifluoro-2-hydroxy-2-methylpropanoylamino)-4,10-dihydrothieno [3,2-c][1]benzothipin-10-one]
- IC50 [1]: 6.6 µM
- response vs control in vivo at 0.1 mg/kg (bladder; 1 h): 118 ± 8%
- response vs control in vivo at 0.1 mg/kg (bladder; 2 h): 137 ± 7%
- response vs control in vivo at 0.1 mg/kg (bladder; 3 h): 145 ± 7%
- response vs control in vivo at 0.1 mg/kg (bladder; 4 h): 152 ± 8%
- response vs control in vivo at 0.1 mg/kg (bladder; 5 h): 168 ± 7%
- IC50 [2]: 6.3 µM

Compound: O=C1c2ccc(NC(=O)C(F)(F)F)cc2S(=O)(=O)Cc2ccsc21 [Compound 3-5, 5,5-Dioxo-7-trifluoroacetylamino-4,10-dihydrothieno[3,2-c][1]benzothiepin-10-one]
- IC50 [1]: 8.3 µM
- response vs control in vivo at 1 mg/kg (bladder; 1 h): 131 ± 12%
- response vs control in vivo at 1 mg/kg (bladder; 2 h): 152 ± 4%
- response vs control in vivo at 1 mg/kg (bladder; 3 h): 145 ± 18%
- response vs control in vivo at 1 mg/kg (bladder; 4 h): 157 ± 13%
- response vs control in vivo at 1 mg/kg (bladder; 5 h): 158 ± 4%
- IC50 [2]: 8.7 µM
